Source: patent publication US20060228388A1, “Method for controlling an insect species using a synthetic trail pheromone mimic” (priority 2005, published 2006)

Key:
tent caterpillars = experiment: Threshold sensitivity to a narrow line of compound on a paper card; type: in vivo, Malacosoma spp.; settings: compound laid out in a narrow line on a paper card
Experimental: (§1) The threshold sensitivity of tent caterpillars to 5β-cholestan-3-one laid out in a narrow line on a paper card was determined to be approximately 10^−11 g/mm. Field tests were conducted by using the compound to form artificial trails that intersected well established, authentic trunk trails of colonies of 3rd-5th instar ETCs. In 19 of 23 replicates of these tests, each involving a different colony, colonies abandoned their authentic trail systems and followed the pathways marked with 5β-cholestan-3-one. […] Other studies indicate that the authentic trail pheromone of the tent caterpillar (Malacosoma spp.) may differ subtly from 5β-cholestan-3-one. Thus, 5β-cholestan-3-one is best considered an analog, or pheromone mimic of the authentic tent caterpillar pheromone.

[1] = system: colonies of 3rd-5th instar ETCs; experiment: Field test: artificial trails intersecting authentic trunk trails of colonies; type: in vivo, Malacosoma americanum
Experimental: as §1

[2] = system: eastern tent caterpillar colonies; experiment: Field colony disruption by blanket spraying trees with pheromone-mimic; type: in vivo, Malacosoma americanum
Experimental: (§2) Three experiments were conducted, all employing the following protocol. Trees in the experimental plot were divided into two groups. Trees in one group were sprayed with a 1 part per million (ppm) pheromone-mimic formulation and trees in another group were sprayed with a control solution identical to the pheromone mimic formulation except that it lacked the pheromone-mimic. Egg masses were attached to each tree and the fate of the colonies determined by observation.
(§3) In the second experiment, ten control colonies of the eastern tent caterpillar on apple trees survived and thrived while all of ten colonies on treated trees were destroyed within one week. […] While the exact fate of caterpillars on the treated trees is unknown, they most likely succumbed to a combination of weather related factors, starvation, predation, and falls from the trees.

[3] = system: forest tent caterpillar colonies; experiment: as above; type: in vivo, Malacosoma disstria; settings: third experiment; ash trees; 1 ppm spray; within one week
Experimental: as §2, §3

Question: `CC(C)CCC[C@@H](C)[C@H]1CC[C@H]2[C@@H]3CC[C@@H]4CC(=O)CC[C@]4(C)[C@H]3CC[C@]12C` [5β-cholestan-3-one] was tested. Which “threshold sensitivity of tent caterpillars” value (tent caterpillars) did it give?
Answer: approximately 10^−11 g/mm

Question: And the “replicates in which colonies abandoned their authentic trail systems and followed the marked pathways” value ([1]; field, each replicate a different colony of 3rd-5th instar ETCs)?
Answer: 19 of 23

Question: What about the “competitiveness with authentic recruitment trails of the caterpillar” value ([1]; in vivo) of the same compound?
Answer: fully competitive

Question: What about the “fate of the remaining treated colonies” value ([2]; first experiment, cherry trees, 1 ppm spray, three remaining colonies) of the same compound?
Answer: eventually died out

Question: And the “treated colonies completely destroyed” value ([2]; first experiment, cherry trees, 1 ppm spray, within several days)?
Answer: seven of ten

Question: And the “colonies on treated trees destroyed” value ([2]; second experiment, apple trees, 1 ppm spray, within one week)?
Answer: all of ten

Question: And the “disrupting the communicative system of the ETC” value ([2]; solution containing 1 ppm)?
Answer: effective

Question: What about the “colonies on treated trees perished” value [3] of the same compound?
Answer: all of fifteen
